Measured values as given in patent US9915659B2, “Systems and methods for prognosticating brain tumors” (Cedars-Sinai Medical Center, priority 2013, dated 2018).
Entries after “also recorded” stand apart in the source; their conditions may differ. One block for each molecule: values may come before it.

Legend:
[1] = system: GBM patients; assay: Survival of temozolomide-treated GBM patients stratified by ZEB1 copy number and MGMT expression; type: in vivo, human; details: temozolomide treatment
From the text: Given our observations that ZEB1 and CD133 expression imparts GSC resistance to differentiation and impacts patient survival, we considered if ZEB1 loss would impact response to therapy. To do this, we explored the role of 06-methylguanine-DNA methyltransferase (MGMT) which removes DNA alkylating agents and therefore hinders the effectiveness of chemotherapeutic alkylating agents including temozolomide.^28 The MGMT promoter region has been shown when hypermethylated to suppress MGMT activity conferring chemosensitivity resulting in favorable prognosis compared to the hypomethylated state of MGMT which results in poor patient outcomes. MGMT expression is inversely correlated to its methylated state. We sought to determine the effect of ZEB1 loss on the clinical impact of hypermethylation of MGMT in the presence of temozolomide.
MGMT expression is inversely correlated to its methylated state. We sought to determine the effect of ZEB1 deletion on the clinical impact of hypermethylation of MGMT in the presence of temozolomide.

[2] = system: GBM patients; assay: Kaplan-Meier overall survival of GBM patients treated with or without bevacizumab, stratified by ZEB1 copy number (study set J / data set of 78 GBM patients); type: in vivo, human
From the text: Data are expressed as mean±s.e.m. Kaplan-Meier curves and p values were generated using Prism 6.0v. Two-tailed student's t-test, were used. A P value of *<0.05 was considered significant.

[3] = system: glioblastoma patients; assay: Overall survival of 403 glioblastoma patients treated with or without bevacizumab, stratified by ZEB1 expression; type: in vivo, human; details: general patient population
From the text: Studies reported OS results by ZEB1 status and permutations of ZEB1/IDH1 status via (1) Kaplan-Meier curves, (2) hazard ratios (HRs) and corresponding 95% confidence intervals, (3) c-statistic. We translated all reports of survival outcomes to the number of events and the survival time. Patients not experiencing event were censored at the last follow-up date.
Data are presented as frequency (percentage, %) for categorical variables and median (IQR, interquartile range) for continuous variables. ZEB1 and IDH1 mRNA values were log base 2 transformed. Univariate associations between variables were examined with Wilcoxon rank-sum test, chi-square test, or Spearman rank correlation, where appropriate. A Cox proportional hazards regression model was employed in univariate and multivariable analyses to identify variables that predict OS. The proportional hazards assumption was evaluated with Schoenfeld residuals and a Kolmogorov-type supremum test. Hazard ratios (HRs) were expressed as an increase from the 25th to 75th percentile in continuous variables. Multivariable analysis was further carried out with the Cox proportional hazards model to examine whether an improvement in predictive discriminatory power was obtained when ZEB1 was added to the model containing the known marker, IDH1 and age. […]

[4] = system: GBM patients; details: two recent phase III trials; cited from earlier work
[5] = system: GCSCs; assay: ZEB1 expression by qRT-PCR in GCSCs treated with IFN-γ; type: cell-based, human; details: IFN-γ 3 days (200 ng/ml)
Experimental: FIGS. 15A-15J depict, in accordance with various embodiments of the present invention, effect of IFN-γ on LIF and ZEB1 activation in patient derived glioma cancer stem cells (GCSCs). (FIG. 15A) GCSCs were treated with IFN-γ for 3-days and ZEB1 expression levels were determined by qRT-PCR. (FIG. 15B) The percentage of CD133^+ GCSCs in the presence and absence of IFN-γ were determined by flow cytometry. GCSCs were incubated with IFN-γ for 7-days. (FIG. 15C) The effects of IFN-γ on secondary neurosphere formation. […] (FIG. 15E) Spearman correlation between LIF and ZEB1 GBM patients (n=28), rank correlation (R) and two-tailed significance is shown. (FIG. 15F) ZEB1 binding motifs within the LIF promoter (CAGGTG, ***P<0.0001 and CAGGTA,***P<0.0001). […]
To generate GSCs that stably express short hairpin RNAs (shRNAs) that target ZEB1, we co-transfected shRNA (Origene, Rockville Md.),—that target ZEB1 into our 0827 or 0323 GSCs, with a VSV-G expression plasmid (Clontech) into the GP2-293 packaging cell line (Clontech) according to the manufacturer's instructions. […] Cells that were resistant to puromycin were characterized for ZEB1 expression by immunoblotting and subsequent cell proliferation using 5-ethynyl-2′-deoxyuridine (EdU) Click-IT assay (Life Technologies) using fluorescence activated cell sorting (FACs) analysis according to the manufacturer's instructions. […]

[6] = system: GSCs; assay: CD133 staining of GSCs by flow cytometry (FACs); type: cell-based, human; details: IFN-γ 7 days (100 ng/ml)
Experimental: (§1) GSCs were washed with 1× PBS buffer 3 times and resuspended in 1× PBS. GSCs were fixed in 4% formaldehyde for 15 min at room temperature. Cells were washed with 1× PBS buffer and were incubated in 0.1% Triton X-100 for 5 min, washed and then incubated with FcR Blocker (Mitenyi Biotech) followed by incubation with CD133 antibody conjugated to Phycoerythrin (PE) or although not shown an isotype control was also performed (Mitenyi Biotech), protected from light for 1 hr at room temperature. Cells were washed and analyzed on a FACscan flow cytometer (BD Biosciences, San Jose, Calif.).
as §1, with “performed (Miltenyi” for “performed (Mitenyi”, “1 […]” for “1 hr”, “(BD Biosciences).” for “(BD Biosciences, San Jose, Calif.).”
GCSCs were washed with 1× PBS buffer 3 times and resuspended in 1× PBS. GCSCs were fixed in 4% formaldehyde for 15 min at room temperature. […] Cells were washed and analyzed on a FACscan flow cytometer (BD Biosciences). […]

[7] = system: GSCs; assay: Neurosphere formation and limiting dilution sphere-forming assay; type: cell-based, human; details: IFN-γ treated GSCs
Experimental: (§2) Neural Basal A media (Invitrogen) supplemented with EGF and bFGF (R&D Systems) were used to culture primary patient derived glioma stem cells (GSCs) which were dissociated into single cells sorted for CD133 expression and plated onto 24 well plates with various seeding densities (4-100 cells/well). GSCs were incubated at 37° C. at 5% CO2 for 2 to 3 weeks. GSCs were then quantified for neurosphere formation.
as §2, with “GCSCs” for “glioma stem cells (GSCs)”, “GCSCs” for “GSCs”

[8] = system: LIF promoter; assay: LIF luciferase reporter assay in GCSCs; type: cell-based, human; details: IFN-γ 200 ng/mL 72 hrs; all constructs except −109/+10 region
Experimental: (§3) To measure transcriptional activity of LIF, 0827 GSCs (1×10^4 cells per transfection, three replicates per condition) were transiently transfected with one of several deletion LIF luciferase reporter plasmids (1 ug; Switchgear) with the use of X-treme gene HP DNA (Roche), seeded in six-well plates (1×10^4 cell per well), and incubated for 48 hrs. IFN-γ cytokine (200 ng/mL) was added to the cultures and the cells were incubated for 72 hrs. The cells were harvested and the luciferase activity was measured with the use of a GloMax 20/20 Luminometer (Promega, Madison, Wis.). These experiments were carried out in triplicate on three different occasions.
as §3, with “GCSCs” for “GSCs”, “IFN-6” for “IFN-γ”, “occasions. […]” for “occasions.”

Molecule: Cn1nnc2c(C(N)=O)ncn2c1=O [temozolomide]
hazard ratio, patient survival, ZEB1 deletion vs wildtype ZEB1 ([1]; high MGMT expression (n=121)): 1.59
hazard ratio, patient survival, ZEB1 deletion vs wildtype ZEB1 ([1]; low MGMT expression (n=115)): 1.56

Molecule: bevacizumab
effect on patient survival ([2]; ZEB1 deleted patients): significant survival benefit; also recorded: increase in survival
effect on patient survival ([2]; ZEB1 intact / ZEB1 wt patients): no change in survival; also recorded: no effect
effect on patient survival ([2]; general patient population, independent data set of 78 GBM patients): did little to alter patient survival
effect on patient survival [3]: did little to alter patient survival
survival advantage in GBM patients [4]: no survival advantage

LIF transcriptional activity (luciferase deletion constructs) [8]: suppressive effect
B1: IFN-γ: proinflammatory cytokine interferon gamma (eBioscience) (protein, UniProt P01579 24-161, looked up)
Interferon gamma: QDPYVKEAENLKKYFNAGHSDVADNGTLFLGILKNWKEESDRKIMQSQIVSFYFKLFKNFKDDQSIQKSVETIKEDMNVKFFNSNKKKRDDFEKLTNYSVTDLNVQRKAIHELIQVMAELSPAAKTGKRKRSQMLFRG
ZEB1 induction (expression) vs untreated [5]: significant increase; also recorded: induced
CD133 expression [6]: decreased
secondary neurosphere formation [7]: decreased
self-renewal capabilities vs untreated ([7]; limiting dilution): decreased
